# Test: Toxicity (mouse LD50)
# Assay type: in vivo
structure (smiles),measurement,value
"c1ccc(C2CN3CCSC3=N2)cc1 (stereo not shown) [levamisole, 2,3,5,6-tetrahydro-6-phenyl-imidazo[2,1-b]thiazole]",toxicity,devoid of toxicity
